Measurements published in US7378445B2, “Treatment of prostate cancer” (Peplin Research Pty. Ltd., priority 2000, dated 2008).

Experiments:
Format in all cases: cell-based
[1] = test system: DU145 prostate cancer cells; test: Combination with chemotherapeutic agents, cytotoxicity (3H-thymidine incorporation); conditions: 24 hr treatment, then five days growth; for cytotoxicity of combination with cisplatin compared to additive cytotoxicity: FIGS. 6A, 6B, 6E; for cytotoxicity of combination with SBHA compared to additive cytotoxicity: FIGS. 6C, 6D
Protocol: The prostate cancer cells were treated with (A) PEP006 and cisplatin, (B) PEP008 and cisplatin, (C) PEP005 and SBHA, (D) PEP008 and SBHA and (E) PEP005 and cisplatin for 24 hr after which the medium was changed and the cells permitted to grow in the presence of ^3H-thymidine for five days. The percentage cell survival was determined by measuring the incorporation of ^3H-thymidine in the cells.

[2] = test system: MM96L human melanoma cells; test: Killing by untreated leukocytes of drug-pretreated tumor cells ([3H]-thymidine); conditions: target cells pretreated with 60 ng/mL for 20 hr, washed; 48 hr with human leukocytes; 100:1 ratio of effector:target cells
Protocol: (§1) The question of whether drug treatment of the target tumor cells causes them to become susceptible to effector cells of the immune system was addressed as follows.
(§2) Leukocytes obtained by lysis of human peripheral blood were added to 5000 MM96L human melanoma cells or 7000 neonatal foreskin fibroblasts per microtitre well at effector: target ratios of 1000, 100 and 10:1. The target cells had been treated with 60 ng/mL PEP008 for 20 hr beforehand, and washed and the medium replaced before the leukocytes were added. After 48 hr incubation with the leukocytes the cultures were washed and labelled with [3H]-thymidine for 2 hr. […] Untreated leukocytes had no effect on cell survival.

[3] = test system: neonatal foreskin fibroblasts; test: Killing by untreated leukocytes of drug-pretreated normal cells ([3H]-thymidine); conditions: target cells pretreated with 60 ng/mL for 20 hr, washed; 48 hr with human leukocytes; 100:1 ratio of effector:target cells
Protocol: as §1, §2

Structure (SMILES) | cytotoxicity of combination with cisplatin compared to additive cytotoxicity [1] | cytotoxicity of combination with SBHA compared to additive cytotoxicity [1] | survival of melanoma cells [2] [%] | survival of normal fibroblasts [3] [%]
C/C=C(/C)C(=O)O[C@H]1C(C)=C[C@]23C(=O)[C@H](C=C(C)[C@@H](O)[C@]12O)[C@H]1[C@@H](C[C@H]3C)C1(C)C [PEP006, 20-deoxy-Ingenol-3-angelate] | synergistic combinations |  |  | 
C/C=C(/C)C(=O)O[C@H]1C(C)=C[C@]23C(=O)[C@@H](C=C(CO)[C@@H](O)[C@]12O)[C@H]1[C@@H](C[C@H]3C)C1(C)C [PEP005, Ingenol-3-angelate] | synergistic combinations | synergistic combinations |  | 
C/C=C(/C)C(=O)O[C@H]1C(C)=C[C@]23C(=O)[C@@H](C=C(COC(C)=O)[C@@H](O)[C@]12O)[C@H]1[C@@H](C[C@H]3C)C1(C)C [PEP008, 20-O-acetyl-ingenol-3-angelate] | synergistic combinations | synergistic combinations | 12 | 100
